Biological target: full-length human His-tagged BTK (Homo sapiens (Human), UniProt Q06187)
Test: BTK Assay (HTRF, Cisbio KinEASE-TK)
Assay type: biochemical
Settings: 6 nM BTK, 30 uM ATP, 15 min preincubation
Procedure: An HTRF assay (Cisbio KinEASE-TK cat #62TKOPEC) was performed to quantitate the ability of test compounds to inhibit BTK mediated phosphorylation of substrate. Assays were assembled in 384 well plates where 6 nM of full-length human His-tagged BTK (Life Technologies cat # PV3587) and test compound at varying concentrations were preincubated for 15 minutes at 28° C. Then, 1 uM of TK substrate-biotin and 30 uM ATP were added and incubated for an additional 30 minutes at 28° C.

Chain of full-length human His-tagged BTK (Q06187 whole entry): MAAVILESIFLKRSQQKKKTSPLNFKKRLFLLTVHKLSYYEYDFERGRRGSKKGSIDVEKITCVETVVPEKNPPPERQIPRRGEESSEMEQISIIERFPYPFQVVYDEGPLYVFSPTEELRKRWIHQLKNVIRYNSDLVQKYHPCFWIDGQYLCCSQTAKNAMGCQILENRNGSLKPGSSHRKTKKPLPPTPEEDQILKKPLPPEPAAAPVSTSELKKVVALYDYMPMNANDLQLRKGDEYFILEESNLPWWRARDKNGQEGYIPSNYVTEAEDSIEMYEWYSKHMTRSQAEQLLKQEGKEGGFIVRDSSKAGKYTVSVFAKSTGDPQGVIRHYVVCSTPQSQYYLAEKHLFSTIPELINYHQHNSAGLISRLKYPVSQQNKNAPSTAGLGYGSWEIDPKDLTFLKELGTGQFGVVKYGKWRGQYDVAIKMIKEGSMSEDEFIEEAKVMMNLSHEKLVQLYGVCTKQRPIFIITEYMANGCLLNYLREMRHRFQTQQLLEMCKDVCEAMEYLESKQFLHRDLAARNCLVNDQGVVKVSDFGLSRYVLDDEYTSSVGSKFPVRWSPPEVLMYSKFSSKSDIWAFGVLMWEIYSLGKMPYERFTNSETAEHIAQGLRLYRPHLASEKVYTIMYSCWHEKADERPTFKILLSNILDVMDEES

Row | Compound | IC50
1 | C=CC(=O)NCCc1nc(-c2ccc(Oc3ccccc3)cc2)c(C(N)=O)s1 [Example 34] | 21 nM
2 | C=CC(=O)N1CCC[C@@H](n2cc(C(N)=O)c(-c3ccc(OCc4ccccc4)cc3)n2)C1 [Example 2] | 33 nM
3 | CN(C)C/C=C/C(=O)N1CCC[C@H]1Cn1cc(C(N)=O)c(-c2ccc(Oc3ccccc3)cc2)n1 [Example 36] | 230 nM
4 | C=CC(=O)N1CC[C@]2(C1)C[C@H](n1nc(-c3ccc(OC)cc3)c(C(N)=O)c1N)C2 [Example 153] | 2.3 nM
5 | CC#CC(=O)N1CC2(CC(n3nc(-c4ccc(OC(F)(F)F)cc4)c(C(N)=O)c3N)C2)C1 [Example 108] | 14 nM
6 | CC#CC(=O)N1CCC(n2cc(C(N)=O)c(-c3ccc(Oc4ccccc4)cc3)n2)CC1 [Example 56] | 15 nM
7 | C=CC(=O)N1CC[C@]2(C1)C[C@@H](n1nc(-c3ccc(Oc4ccccc4)cn3)c(C(N)=O)c1N)C2 [Example 117] | 1.1 nM
8 | CC#CC(=O)N1CC[C@]2(C1)C[C@H](n1nc(-c3ccc(OC4CC4)cc3)c(C(N)=O)c1N)C2 [Example 157] | 2 nM
9 | C=CC(=O)N1CCC[C@@H](n2cc(C(N)=O)c(-c3ccc4occc4c3)n2)C1 [Example 16] | 580 nM
10 | CC#CC(=O)N1CC[C@]2(C1)C[C@H](n1nc(-c3ccc(Oc4ccccn4)cc3)c(C(N)=O)c1N)C2 [Example 151] | 0.7 nM
11 | C=CC(=O)N1CC[C@]2(C1)C[C@@H](n1nc(-c3ccc(Oc4ccccc4)nc3)c(C(N)=O)c1N)C2 [Example 123] | 9.1 nM
12 | C=CC(=O)N1CCC[C@@H](n2cc(C(N)=O)c(-c3ccc(NC(=O)Nc4cccc(C)c4)cc3)n2)C1 [Example 60] | 41 nM
13 | C=CC(=O)N1CCC(Cn2cc(C(N)=O)c(-c3ccc(Oc4ccccc4)cc3)n2)C1 (stereo not drawn) [Example 42] | 64 nM
14 | CC#CC(=O)N1CC[C@]2(C1)C[C@H](n1nc(-c3ccc(C(F)(F)F)cc3)c(C(N)=O)c1N)C2 [Example 128] | 0.9 nM
15 | C=CC(=O)N1CC[C@]2(C1)C[C@@H](n1nc(-c3ccc(OCCC)cc3)c(C(N)=O)c1N)C2 [Example 126] | 28 nM
16 | C=CC(=O)N1CCC[C@@H](n2cc(C(N)=O)c(-c3ccc(Oc4ccc(Cl)c(F)c4)cc3)n2)C1 [Example 66] | 43 nM
17 | CC#CC(=O)N1CC[C@]2(C1)C[C@H](n1nc(-c3ccc(Oc4ccccc4)nc3)c(C(N)=O)c1N)C2 [Example 150] | 0.8 nM
18 | C=CC(=O)N1CCC[C@@H](n2cc(C(N)=O)c(-c3ccc(OCCOC)cc3)n2)C1 [Example 95] | 1600 nM
19 | C=CC(=O)N1CC2(CC(n3nc(-c4ccc(C(F)(F)F)c(F)c4)c(C(N)=O)c3N)C2)C1 [Example 142] | 29 nM
20 | NC(=O)c1cn([C@@H]2CCCN(C(=O)C#CCN3CCOCC3)C2)nc1-c1ccc(Oc2ccccc2)cc1 [Example 93] | 33 nM
21 | C=CC(=O)N1CCC2(CC(n3nc(-c4ccc(OCCC)cc4)c(C(N)=O)c3N)C2)C1 (single isomer, unassigned) [Example 125] | 7.5 nM
22 | C=CC(=O)NCCn1cc(C(N)=O)c(-c2ccc(Oc3ccccc3)cc2)n1 [Example 39] | 290 nM
23 | C=CC(=O)N1CCC[C@@H](n2cc(C(N)=O)c(-c3ccc(-c4ccccc4)cc3)n2)C1 [Example 1] | 2600 nM
24 | C=CC(=O)N1CC2(CC(n3nc(-c4ccc(Oc5ccccc5)cc4)c(C(N)=O)c3N)C2)C1 [Example 35] | 0.77 nM

Row | Compound | IC50
25 | C=CC(=O)N1CCC(Cn2cc(C(N)=O)c(-c3ccc(Oc4ccccc4)cc3)n2)CC1 [Example 47] | 10 nM
26 | CC#CC(=O)N1CC2(CC(n3nc(-c4ccc(OCCC)c(F)c4)c(C(N)=O)c3N)C2)C1 [Example 138] | 2.2 nM
27 | C=CC(=O)N1CCC[C@@H](n2cc(C(N)=O)c(-c3ccc(Oc4ccc(Cl)c(Cl)c4)c(OC)c3)n2)C1 [Example 20] | 30 nM
28 | C=CC(=O)N1CCC[C@@H](n2cc(C(N)=O)c(-c3ccc(Oc4ccccc4)c(F)c3)n2)C1 [Example 23] | 10 nM
29 | C=CC(=O)N1CCC[C@@H](n2cc(C(N)=O)c(-c3ccc(Oc4ccc(C)cc4)cc3)n2)C1 [Example 71] | 14 nM
30 | C=CC(=O)N1CCC[C@@H](n2cc(C(N)=O)c(-c3cccc(NS(C)(=O)=O)c3)n2)C1 [Example 17] | 4800 nM
31 | C=CC(=O)N1CC[C@]2(C1)C[C@H](n1nc(-c3ccc(Oc4ccccn4)cc3)c(C(N)=O)c1N)C2 [Example 152] | 1.5 nM
32 | CC#CC(=O)N1CCC2(CC1)CC(n1nc(-c3ccc(Oc4ccccc4)cc3)c(C(N)=O)c1N)C2 [Example 83] | 2.1 nM
33 | C=CC(=O)N1CC2(CC(n3nc(-c4ccc(OCCC)cc4)c(C(N)=O)c3N)C2)C1 [Example 111] | 16 nM
34 | CC#CC(=O)N1CCCC(Cn2cc(C(N)=O)c(-c3ccc(Oc4ccccc4)cc3)n2)C1 (stereo not drawn) [Example 48] | 90 nM
35 | C=CC(=O)N1CC2(CC(n3nc(-c4ccc(OC5CCOC5)cc4)c(C(N)=O)c3N)C2)C1 (stereo not drawn) [Example 134] | 120 nM
36 | C=CC(=O)N1CCC[C@@H](n2cc(C(N)=O)c(-c3ccc(Oc4ccc(Cl)cc4)cc3)n2)C1 [Example 70] | 45 nM
37 | CC#CC(=O)N1CC2(CC(n3nc(-c4ccc(F)c(C(F)(F)F)c4)c(C(N)=O)c3N)C2)C1 [Example 143] | 37 nM
38 | CN(C)C/C=C/C(=O)N1CC2(CC(n3nc(-c4ccc(Oc5ccccc5)cc4)c(C(N)=O)c3N)C2)C1 [Example 100] | 0.8 nM
39 | CNC(=O)/C=C/CN1CCC[C@@H](n2cc(C(N)=O)c(-c3ccc(Oc4ccccc4)cc3)n2)C1 [Example 90] | 90 nM
40 | C=CC(=O)N1CC[C@]2(C1)C[C@H](n1nc(-c3ccc(OC(F)(F)F)cc3)c(C(N)=O)c1N)C2 [Example 162] | 9.2 nM
41 | C=CC(=O)N1CCC[C@@H](n2cc(C(N)=O)c(-c3ccc(Oc4ccc(C#N)cc4)cc3)n2)C1 [Example 75] | 6600 nM
42 | CC#CC(=O)N1CC[C@]2(C1)C[C@@H](n1nc(-c3ccc(Oc4ccccc4)nc3)c(C(N)=O)c1N)C2 [Example 122] | 17 nM
43 | CC#CC(=O)N1CCC2(CC1)CC(c1nc(-c3ccc(Oc4ccccc4)cc3)c(C(N)=O)s1)C2 [Example 85] | 300 nM
44 | CC#CC(=O)N1CC[C@]2(C1)C[C@@H](n1nc(-c3ccc(Oc4ccccc4)cc3)c(C(N)=O)c1N)C2 [Example 92] | 0.89 nM
45 | C=CC(=O)N1CC2(CC(n3nc(-c4ccc(O)cc4)c(C(N)=O)c3N)C2)C1 [Example 133] | 8.4 nM
46 | C=CC(=O)N1CCC[C@@H](n2cc(C(N)=O)c(-c3ccc(OCc4ccccn4)c(Cl)c3)n2)C1 [Example 21] | 98 nM
47 | C=CC(=O)N1CC2(CC(n3nc(-c4ccc(OCCC)c(F)c4)c(C(N)=O)c3N)C2)C1 [Example 139] | 16 nM
48 | C=CC(=O)N1CCC(n2cc(C(N)=O)c(-c3ccc(Oc4ccccc4)cc3)n2)CC1 [Example 55] | 6.6 nM

Row | Compound | IC50
49 | CC#CC(=O)N1CC[C@]2(C1)C[C@@H](n1cc(C(N)=O)c(-c3ccc(Oc4ccccc4)cc3)n1)C2 [Example 89] | 34 nM
50 | CN(C)C/C=C/C(=O)N1CC[C@]2(C1)C[C@H](n1cc(C(N)=O)c(-c3ccc(Oc4ccccc4)cc3)n1)C2 [Example 37] | 38 nM
51 | C=CC(=O)N1CC[C@]2(C1)C[C@H](n1nc(-c3ccc(Oc4ccccc4)cc3)c(C(N)=O)c1N)C2 [Example 80] | 0.93 nM
52 | CC#CC(=O)N1CC2(CC(n3nc(-c4ccc(Cl)c(C(F)(F)F)c4)c(C(N)=O)c3N)C2)C1 [Example 136] | 14 nM
53 | C=CC(=O)N1CC2(CC(n3nc(-c4ccc(OCC(F)(F)F)cc4)c(C(N)=O)c3N)C2)C1 [Example 116] | 12 nM
54 | C=CC(=O)N1CCC[C@@H](n2cc(C(N)=O)c(-c3ccc(Oc4ccccc4)c(Cl)c3)n2)C1 [Example 24] | 9.4 nM
55 | CC#CC(=O)N1CC2(CC(n3nc(-c4ccc(C(F)(F)F)c(F)c4)c(C(N)=O)c3N)C2)C1 [Example 141] | 14 nM
56 | CC#CC(=O)N1CC[C@]2(C1)C[C@@H](n1nc(-c3ccc(OCCC)cc3)c(C(N)=O)c1N)C2 [Example 127] | 15 nM
57 | CC#CC(=O)N1CC[C@]2(C1)C[C@@H](n1nc(-c3ccc(Oc4ccccc4)cn3)c(C(N)=O)c1N)C2 [Example 119] | 11 nM
58 | C=CC(=O)N1CCC[C@@H](n2cc(C(N)=O)c(-c3ccc(Oc4ccc(C(F)(F)F)cc4)cc3)n2)C1 [Example 63] | 660 nM
59 | C=CC(=O)N1CC[C@]2(C1)C[C@H](n1nc(-c3ccc(OC4CC4)cc3)c(C(N)=O)c1N)C2 [Example 156] | 16 nM
60 | CC#CC(=O)N1CCC2(CC1)CC(c1nc(-c3ccc(Oc4ccccc4)cc3)c(C(N)=O)[nH]1)C2 [Example 87] | 4.3 nM
61 | CC#CC(=O)N1CCC[C@@H](c2nc(-c3ccc(Oc4ccccc4)cc3)c(C(N)=O)[nH]2)C1 [Example 59] | 8.9 nM
62 | C=CC(=O)N1CCC[C@@H](n2cc(C(N)=O)c(-c3ccc(Oc4cccc(C)c4)cc3)n2)C1 [Example 72] | 4 nM
63 | CC#CC(=O)N1CC[C@]2(C1)C[C@H](n1nc(-c3ccc(F)c(OCC(F)(F)F)c3)c(C(N)=O)c1N)C2 [Example 137] | 1.6 nM
64 | C=CC(=O)N1CCCC(Cn2cc(C(N)=O)c(-c3ccc(Oc4ccccc4)cc3)n2)C1 (stereo not drawn) [Example 45] | 10 nM
65 | C=CC(=O)N1CC[C@]2(C1)C[C@@H](n1nc(-c3ccc(Oc4ccccc4)cn3)c(C(N)=O)c1N)C2 [Example 120] | 3.5 nM
66 | CC#CC(=O)N1CC2(CC(n3nc(-c4ccc(Oc5ccccc5)nc4)c(C(N)=O)c3N)C2)C1 [Example 102] | 2.7 nM
67 | C=CC(=O)N1CCC[C@@H](n2cc(C(N)=O)c(-c3ccc(Oc4cccc(S(C)(=O)=O)c4)cc3)n2)C1 [Example 65] | 330 nM
68 | CC#CC(=O)N1CC2(CC(n3nc(-c4ccc(OCCC)c(Cl)c4)c(C(N)=O)c3N)C2)C1 [Example 148] | 3 nM
69 | CN(C)C/C=C/C(=O)N1CC[C@]2(C1)C[C@@H](n1nc(-c3ccc(Oc4ccccc4)cc3)c(C(N)=O)c1N)C2 [Example 98] | 0.7 nM
70 | C=CC(=O)N1CCC[C@@H](n2cc(C(N)=O)c(-c3ccc(Nc4nc5ccccc5o4)cc3)n2)C1 [Example 27] | 300 nM
71 | C=CC(=O)N1CC[C@]2(C1)C[C@@H](n1nc(-c3ccc(C(F)(F)F)cc3)c(C(N)=O)c1N)C2 [Example 131] | 28 nM
72 | NC(=O)c1c(-c2ccc(Oc3ccccc3)cc2)nn(C2CC3(C2)CN(C(=O)/C=C/CN2CCOCC2)C3)c1N [Example 77] | 1.9 nM

From patent US10138229B2, “Heteroaromatic compounds as BTK inhibitors” (Boehringer Ingelheim International GmbH, priority 2012, dated 2018)
